For series [1], the system named is PANC-1 cell line. Nature of the series: cells. The following applies: for fold decrease in PANC-1 potency (PP<) relative to makaluvamine J (9) / fold decrease in PANC-1 potency (PP<) relative to makaluvamine A (1): '<' in PP codes a decrease in potency; for PANC-1 cytotoxic potency (words): PANC-1 (set of b111: PANC-1 and/or OVCAR tumor cells). An excerpt: The task of IC50 assessment for the natural products isolated in this study against the PANC-1 tumor cells line began immediately following the purification and characterization of each pyrrolo[4,3,2-de]quinoline obtained (FIG. 3). […] However, a sample of ammosamide B (17) was obtained from the NCI Molecular Targets Laboratory. Two additional clinically used compounds, etoposide and teniposide were also run in the assay.
The soft agar disk diffusion assay, IC50 determination, and clonogenic assay were performed as previously described.

In the next series the test system is HCT-116 cells. Nature of the series: Clonogenic dose-response assay, continuous exposure. Type of series: cell-based. An excerpt: FIG. 7 Evaluation of makaluvamine J (9) through clonogenic dose-response evaluation employing HCT-116 cells. Continuous exposure of the cells with 9 at different concentrations during periods of: 2 hr, 24 hr, or 120 hr. Efficacy is indicated when the surviving fraction is less than 0.1.
Accurate determination of the exposures required to achieve a useful in vivo therapeutic effect is the outcome being sought through clonogenic study. Illustrated here are data measuring the cytotoxic effect of makaluvamine J (9) at varying concentrations during continuous exposure. Other relevant data to be obtained in the future consists of: (a) repeating the clonogenic runs on makaluvamine acetate J (15), (b) obtaining the maximum tolerated dose (MTD) for both, and (c) assessing the pharmacokinetic behavior of these compounds measured in both plasma and tumors, (PANC-1 and OVC-5) at the MTD which will be tracked through by MS^2 data. The key measurement involved determining the required time-concentration profile to obtain a 90% kill (10% survival-S10) of tumor cells. […] At this juncture it appears that a chronic exposure for five days will be effective and the exact therapeutics regime will depend on the MTD determination data and future pharmacokinetic results.

In series [2] the test system is OVCAR-5. Nature of the series: IC50 determination against OVCAR-5 ovarian cancer cell line. Conditions: for IC50: OVCAR-5, values of the text. Format: cell-based, human.
Procedure: The soft agar disk diffusion assay, IC50 determination, and clonogenic assay were performed as previously described [35].
Series [3] relates to PANC-1 cell line. The following applies: cited from earlier work; for IC50: read-out: PANC-1 IC50, PANC-1, literature data, refs [25], [26], [30].
The next series deals with OVCAR-3. Conditions: first value of OVCAR-3/-5 cell, refs [9], [38], NCI-DTP database; cited from earlier work.
Series [4] has as its system OVCAR-5. Conditions: second value of OVCAR-3/-5 cell, ref [9], NCI-DTP database; cited from earlier work.
The next series has as its system KB xenografts. The following applies: KB mouse model xenografts, ref [9]; cited from earlier work.
The mark [5] stands for this setting: read-out: PANC-1 IC50, PANC-1 pancreatic tumor cell line.
The mark [6] stands for this setting: Homo sapiens, PANC-1, read-out: PANC-1 IC50, PANC-1 pancreatic tumor cell line.

Like-named read-outs stand apart in the source and are kept apart here.

Usually IC50 stands for the midpoint of a concentration-inhibition curve. Turning to `Cn1cc2c3c1C(=O)C(NCCc1ccc(O)cc1)=CC3=[N+](C)CC2.[Cl-]` [makaluvamine P (12), makaluvamine P], the “fold increase in PANC-1 potency (PP>) relative to makaluvamine H (4)” value in the series with PANC-1 cell line [1] (ratio of PANC-1 IC50, '>' in PP codes an increase in potency) is given as 12.3. The IC50 in the series on PANC-1 cell line [1] (setting [5]) stood at 300 nM.
As for damirone D [damirone D (6)], the IC50 with PANC-1 cell line [1] (setting [5]) was 3400 nM.
Turning to `C[N+]1=C2C=C(N/C=C/c3ccc(O)cc3)C(=O)c3[nH]cc(c32)CC1.O=C([O-])C(F)(F)F` [makaluvamine L (11), makaluvamine L], the “fold decrease in PANC-1 potency (PP<) relative to makaluvamine J (9)” value with PANC-1 cell line [1] (ratio of PANC-1 IC50) is given as 35.0 fold. Also, in the series on PANC-1 cell line [1] (setting [5]), the IC50 was 1900 nM.
Regarding `C[N+]1=C2C=C(NCCc3ccc(O)cc3)C(=O)c3[nH]cc(c32)CC1` [makaluvamine J (9), makaluvamine J], in the series on HCT-116 cells (HCT-116, 2 h exposure, extrapolated), the “2S10, concentration for 90% kill (10% survival)” value is 3 µg/mL. The “24S10, concentration for 90% kill (10% survival)” value in the series with HCT-116 cells (HCT-116, 24 h exposure) is reported as 400 ng/mL. Also, the “120S10, concentration for 90% kill (10% survival)” value with HCT-116 cells (HCT-116, 120 h exposure) amounted to 30 ng/mL. In the series with HCT-116 cells (two hour dosing schedule), the “toxicity to HCT-116 cells” value is “Little toxicity”. Also, the “PANC-1 cytotoxic potency (words)” value is “most potent” in the series on PANC-1 cell line [1] and “most potent IC50 values” in the series on PANC-1 cell line [1] (listed as 9). Also, the values for the IC50 in the series on PANC-1 cell line [1] (setting [5]) and with OVCAR-5 [2] were 54 nM and 120 nM, respectively.
For the compound “8,15-O-diacetyl-8-hydroxy-5a,7,8a-trien-makaluvamine J”, the “fold decrease in PANC-1 potency (PP<) relative to makaluvamine J (9)” value with PANC-1 cell line [1] (ratio of PANC-1 IC50) is approximately 10 fold. Besides, the IC50 with PANC-1 cell line [1] (setting [5]) was determined as 590 nM.
Turning to “9-N-acetyl makaluvamine B [9-N-acetyl makaluvamine B (14)]”, the “fold decrease in PANC-1 potency (PP<) relative to makaluvamine A (1)” value in the series with PANC-1 cell line [1] (ratio of PANC-1 IC50) was more than 200 fold. Further, in the series with PANC-1 cell line [1] (setting [5]), the IC50 was found to be 91000 nM.
With `O=C1C(NCc2ccc(F)cc2)=CC2=NCCc3c[nH]c1c32` [FBA-TBQ (18), 7-(4-fluorobenzylamino)-1,3,4,8-tetrahydropyrrolo[4,3,2-de]quinolin-8(1H)-one, reference compound], in the series on PANC-1 cell line [3], the “cytotoxicity against PANC-1 cells (words)” value (shortened to “cytotoxicity”) is given as “moderate cytotoxicity” and the concentration for half-maximal inhibition (IC50) was 110 nM. Further, in the series with PANC-1 cell line [1] (comparison of PANC-1 IC50 with 9), the “less potent than makaluvamine J (9) against PANC-1” value was approximately 50%. The half-inhibitory concentration (IC50) with OVCAR-3 was 950 nM.
For `N=C1C(Cl)=C(N)C(=O)c2[nH]cc(C(O)CO)c21` (stereo not drawn) [secobatzelline A], the “cytotoxicity” value in the series on PANC-1 cell line [3] (literature surveys) is “moderate cytotoxicity”.
Consider `CSc1c2ccnc3c2c(n1C)C(=O)C(N)=C3Cl` [isobatzelline D], for which the “cytotoxicity” value in the series on PANC-1 cell line [3] (literature surveys) was “moderate cytotoxicity”.
On to `Cn1cc2c3c1C(=O)C(N)=CC3=NCC2` [makaluvamine A (1), makaluvamine A], for which the half-inhibitory concentration (IC50) in the series on PANC-1 cell line [1] (setting [5]) was determined as 450 nM.
Consider `Cn1cc2c3c1C(=O)C(N)=C(Cl)C3=NCC2` [isobatzelline C (19), isobatzelline C], for which the “cytotoxicity” value is “relatively inactive” in the series with PANC-1 cell line [3] (literature surveys, listed as 19) and “moderate cytotoxicity” in the series on PANC-1 cell line [3] (literature surveys, listed as isobatzelline C). Also, the IC50 in the series with PANC-1 cell line [3] is 10000 nM.
With `Cn1cc2c3c1C(=O)C(N/C=C/c1ccc(O)cc1)=CC3=[N+](C)CC2` [makaluvamine G (8), makaluvamine G], in the series with PANC-1 cell line [1] (setting [5]), the IC50 was 6200 nM.
`COc1cc([C@@H]2c3cc4c(cc3[C@@H](O[C@@H]3O[C@@H]5CO[C@@H](C)O[C@H]5[C@H](O)[C@H]3O)[C@H]3COC(=O)[C@H]23)OCO4)cc(OC)c1O` [etoposide, reference compound]: the IC50 in the series on PANC-1 cell line [1] (setting [6]) came out at 390 nM.
As for `CSc1c2c3c(n1C)C(=O)C(N)=C(Cl)C3=NCC2` [isobatzelline A], the “cytotoxicity” value with PANC-1 cell line [3] (literature surveys) is “moderate cytotoxicity”.
As to `CN1C(=O)c2cc(C(N)=O)nc3c(N)c(Cl)c(N)c1c23` [ammosamide B (17), ammosamide B, reference compound], the IC50 in the series with PANC-1 cell line [1] (setting [5]) came to 26000 nM.
For the compound `Cn1cc2c3c1C(=O)C(N)=CC3=[N+](C)CC2.O=C([O-])C(F)(F)F` [makaluvamine H (4), makaluvamine H], the half-inhibitory concentration (IC50) in the series on OVCAR-5 [4] is 100 nM; in the series with PANC-1 cell line [1] (setting [5]) it was 3600 nM; in the series with OVCAR-3 it was 960 nM. Moreover, the “fold decrease in PANC-1 potency (PP<) relative to makaluvamine A (1)” value with PANC-1 cell line [1] (ratio of PANC-1 IC50) is 7.9 fold. For the same compound, the “T/C % (tumor volume in treated/tumor volume in untreated)” value with KB xenografts is listed as 38%.
Consider `C[N+]1=C2C=C(N)C(=O)c3[nH]cc(c32)CC1.[Cl-]` [makaluvamine C (2), makaluvamine C], for which the “fold decrease in PANC-1 potency (PP<) relative to makaluvamine J (9)” value in the series with PANC-1 cell line [1] (ratio of PANC-1 IC50) came out at 13.5 fold. For the same compound, the half-inhibitory concentration (IC50) with PANC-1 cell line [1] (setting [5]) was 730 nM; in the series on OVCAR-3, 240 nM.
Take “15-O-acetyl makaluvamine J [15-O-acetyl makaluvamine J (15)]”: the “PANC-1 cytotoxic potency (words)” value in the series with PANC-1 cell line [1] was “most potent IC50 values”. Further, the “fold decrease in PANC-1 potency (PP<) relative to makaluvamine J (9)” value in the series on PANC-1 cell line [1] (ratio of PANC-1 IC50) turned out to be 1.5 fold. The half-maximal inhibitory concentration (IC50) in the series on PANC-1 cell line [1] (setting [5]) is 81 nM; in the series on OVCAR-5 [2], 8.6 nM. The “fold increase in OVCAR-5 potency over makaluvamine J (9)” value with OVCAR-5 [2] (ratio of OVCAR-5 IC50) was found to be 14 fold.
With `COc1cc([C@@H]2c3cc4c(cc3[C@@H](O[C@@H]3O[C@@H]5CO[C@@H](c6cccs6)O[C@H]5[C@H](O)[C@H]3O)[C@H]3COC(=O)[C@H]23)OCO4)cc(OC)c1O` [teniposide, reference compound], the figures for the IC50 in the series on PANC-1 cell line [1] (setting [6]) and with PANC-1 cell line [1] (setting [5]) were 40 nM and 41 nM, respectively.
Consider `CN1CCc2cn(C)c3c2C1=CC(=O)C3=O` [damirone A (5), damirone A], for which the half-inhibitory concentration (IC50) in the series on PANC-1 cell line [1] (setting [5]) is 160000 nM.
Consider `Cn1cc2c3c1C(=O)C(NCCc1ccc(O)cc1)=CC3=NCC2` [makaluvamine K (10), makaluvamine K], for which, in the series on PANC-1 cell line [1] (ratio of PANC-1 IC50), the “fold decrease in PANC-1 potency (PP<) relative to makaluvamine A (1)” value stood at 1.2 fold and the “fold decrease in PANC-1 potency (PP<) relative to makaluvamine J (9)” value is recorded as 10.4 fold. In the series with PANC-1 cell line [1] (setting [5]), the half-maximal inhibitory concentration (IC50) came out at 560 nM.
As to makaluvamine D [makaluvamine D (7)], the IC50 with PANC-1 cell line [1] (setting [5]) was 290 nM.
Regarding makaluvamine I [reference compound], the “T/C % (tumor volume in treated/tumor volume in untreated)” value with KB xenografts is 34%.
Regarding `CN1CCc2c[nH]c3c2C1=CC(=O)C3=O` [damirone B (3), damirone B], the concentration for half-maximal inhibition (IC50) in the series with PANC-1 cell line [1] (setting [5]) amounted to 19000 nM.
Consider `Nc1ccn([C@@H]2O[C@H](CO)[C@@H](O)C2(F)F)c(=O)n1` [gemcitabine], for which, in the series with PANC-1 cell line [3], the IC50 is 7200 nM.

The values above are taken from US11020488B2, “Pyrroloquinolin compounds and methods of using same” (The Regents of the University of California, priority 2017, dated 2021).
